This is an account of results in ChEMBL document CHEMBL5344409, “Discovery of pan-IAP degraders via a CRBN recruiting mechanism” (2023).

In assay [1] the target is Baculoviral IAP repeat-containing protein 2 (Homo sapiens) (UniProt Q13490). Description: Induction of cIAP1 degradation in human MCF7 cells at 1 uM measured after 18 hrs by western blot analysis. Type of assay: cell-based.
The target is the same in assay [2]. Description: Induction of cIAP1 degradation in human MCF7 cells at 1 uM measured after 6 hrs in presence of proteasome inhibitor, MG132 by western blot analysis. Type of assay: cell-based.
The target in assay [3] is T1, Protein cereblon/E3 ubiquitin-protein ligase XIAP (Homo sapiens) (UniProt P98170+Q96SW2). Briefly: PROTAC activity at CRBN/XIAP in human MCF7 cells assessed as induction of XIAP degradation at 1 uM measured after 18 hrs by western blot analysis. Type of assay: cell-based.
The subject of assay [4] is MCF7. Briefly: Induction of apoptosis in human MCF7 cells assessed as increase in caspase-7 cleavage at 1 uM measured after 6 hrs in presence of TNF-alpha by western blot analysis. It is filed as functional, cell-based.
A further assay concerns MDA-MB-231. Briefly: Inhibition of TNFalpha-induced cell invasion in human MDA-MB-231 cells at 0.1 uM measured after 24 hrs in presence of TNFalpha by transwell assay. It is filed as functional, cell-based.
In assay [5] the target is Protein cereblon (Homo sapiens) (UniProt Q96SW2). Description: Induction of CRBN degradation in human MCF7 cells by western blot analysis. Type of assay: cell-based.
Assay [6] addresses T1, Protein cereblon/E3 ubiquitin-protein ligase XIAP (Homo sapiens). Briefly: PROTAC activity at CRBN/XIAP in human MCF7 cells assessed as induction of XIAP degradation at 0.1 uM measured within 1 hr by western blot analysis. Type of assay: cell-based.
Assay [7] addresses T2, Protein cereblon/Baculoviral IAP repeat-containing protein 3 (Homo sapiens) (UniProt Q13489+Q96SW2). Briefly: PROTAC activity at CRBN/cIAP2 in human MCF7 cells assessed as induction of cIAP2 degradation at 1 uM measured after 18 hrs by western blot analysis. It is filed as cell-based.
The target in assay [8] is T1, Protein cereblon/E3 ubiquitin-protein ligase XIAP (Homo sapiens). Briefly: PROTAC activity at CRBN/XIAP in human MCF7 cells assessed as induction of XIAP degradation at 1 uM measured after 6 hrs in presence of proteasome inhibitor, MG132 by western blot analysis. Type of assay: cell-based.
Assay [9] concerns the target Baculoviral IAP repeat-containing protein 2 (Homo sapiens) (UniProt Q13490). Description: Induction of cIAP1 degradation in human MCF7 cells at 0.1 to 10 uM measured after 18 hrs by western blot analysis. Type of assay: cell-based. To be noted: dose 0.1-10 µM.
For assay [10], the target named is T3, Protein cereblon-IAP (Homo sapiens) (UniProt P98170+Q13489+Q13490+Q96SW2). Briefly: PROTAC activity at CRBN/IAP in human MCF7 cells assessed as inhibition of TNFalpha-induced NFkappaB activation by measuring decrease in p65 phosphorylation at 0.1 uM pretreated for 2 hrs followed by stimulation with TNF-alpha for 3 mins by western blot analysis. Type of assay: cell-based. The following applies: time 123.0 min.

For assay [11], the system named is MCF7. Description: Induction of apoptosis in human MCF7 cells assessed as increase in PARP cleavage at 0.1 uM measured after 18 hrs by western blot analysis. Type of assay: functional, cell-based.
In assay [12] the target is T2, Protein cereblon/Baculoviral IAP repeat-containing protein 3 (Homo sapiens). Briefly: Binding affinity to CRBN/cIAP2 in human HEK293T cells assessed as ternary complex formation at 1 uM measured after 6 hrs by immunoprecipitation analysis. It is filed as cell-based.
Assay [13] concerns the target Baculoviral IAP repeat-containing protein 2 (Homo sapiens) (UniProt Q13490). Briefly: Induction of cIAP1 degradation in human MCF7 cells at 0.1 uM measured after 18 hrs by western blot analysis. Type of assay: cell-based.
The target of assay [14] is T3, Protein cereblon-IAP (Homo sapiens). Description: PROTAC activity at CRBN/IAP in human MCF7 cells assessed as inhibition of TNFalpha-induced NFkappaB activation by measuring decrease in p38 phosphorylation at 0.1 uM pretreated for 2 hrs followed by stimulation with TNF-alpha for 3 mins by western blot analysis. Type of assay: cell-based. To be noted: time 123.0 min.

The source made the active and inactive calls. No cut-off for these calls is given here.

Baculoviral IAP repeat-containing protein 2 (Homo sapiens), sequence (Q13490 whole entry): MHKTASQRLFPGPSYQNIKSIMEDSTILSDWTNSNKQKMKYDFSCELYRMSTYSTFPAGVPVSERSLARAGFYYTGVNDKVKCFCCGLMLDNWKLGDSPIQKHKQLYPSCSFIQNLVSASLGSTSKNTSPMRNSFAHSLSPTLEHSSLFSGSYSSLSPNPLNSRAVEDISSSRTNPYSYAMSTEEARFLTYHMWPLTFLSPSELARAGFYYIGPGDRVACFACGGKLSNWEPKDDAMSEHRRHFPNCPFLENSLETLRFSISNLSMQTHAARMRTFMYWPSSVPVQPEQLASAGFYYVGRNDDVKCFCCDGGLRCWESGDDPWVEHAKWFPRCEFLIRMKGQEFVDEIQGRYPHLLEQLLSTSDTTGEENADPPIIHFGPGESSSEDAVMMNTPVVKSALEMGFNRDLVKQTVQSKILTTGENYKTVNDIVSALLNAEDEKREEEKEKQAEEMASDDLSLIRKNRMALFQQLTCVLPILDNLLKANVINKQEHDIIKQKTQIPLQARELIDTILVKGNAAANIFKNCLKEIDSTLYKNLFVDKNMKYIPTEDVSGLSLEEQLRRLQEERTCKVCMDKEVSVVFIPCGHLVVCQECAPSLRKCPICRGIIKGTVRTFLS
T1 sequence (P98170 whole entry, looked up): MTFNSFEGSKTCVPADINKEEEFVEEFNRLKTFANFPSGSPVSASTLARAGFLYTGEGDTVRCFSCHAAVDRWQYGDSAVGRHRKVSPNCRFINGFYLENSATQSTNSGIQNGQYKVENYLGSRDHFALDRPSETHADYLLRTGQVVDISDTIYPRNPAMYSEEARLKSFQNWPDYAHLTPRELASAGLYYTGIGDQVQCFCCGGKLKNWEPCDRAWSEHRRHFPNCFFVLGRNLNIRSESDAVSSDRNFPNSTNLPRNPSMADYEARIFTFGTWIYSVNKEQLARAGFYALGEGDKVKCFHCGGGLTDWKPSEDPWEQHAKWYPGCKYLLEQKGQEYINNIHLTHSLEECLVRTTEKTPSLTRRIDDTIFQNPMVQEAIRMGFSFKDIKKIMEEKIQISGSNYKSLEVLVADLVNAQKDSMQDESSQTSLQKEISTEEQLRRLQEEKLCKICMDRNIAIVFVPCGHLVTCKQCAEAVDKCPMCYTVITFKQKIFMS
T1 sequence (Q96SW2 whole entry, looked up): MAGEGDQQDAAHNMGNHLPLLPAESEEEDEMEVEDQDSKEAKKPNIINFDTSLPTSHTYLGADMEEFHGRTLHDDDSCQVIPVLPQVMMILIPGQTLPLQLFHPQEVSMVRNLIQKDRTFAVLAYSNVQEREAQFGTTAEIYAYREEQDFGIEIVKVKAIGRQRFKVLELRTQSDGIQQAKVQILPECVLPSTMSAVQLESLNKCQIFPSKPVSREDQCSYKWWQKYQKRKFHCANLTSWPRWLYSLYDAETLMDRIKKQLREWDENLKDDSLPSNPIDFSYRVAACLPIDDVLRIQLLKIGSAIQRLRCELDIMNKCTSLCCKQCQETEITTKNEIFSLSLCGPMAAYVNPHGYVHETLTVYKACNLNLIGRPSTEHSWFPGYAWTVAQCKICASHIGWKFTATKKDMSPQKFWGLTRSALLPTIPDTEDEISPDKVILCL
T2 sequence (Q13489 whole entry, looked up): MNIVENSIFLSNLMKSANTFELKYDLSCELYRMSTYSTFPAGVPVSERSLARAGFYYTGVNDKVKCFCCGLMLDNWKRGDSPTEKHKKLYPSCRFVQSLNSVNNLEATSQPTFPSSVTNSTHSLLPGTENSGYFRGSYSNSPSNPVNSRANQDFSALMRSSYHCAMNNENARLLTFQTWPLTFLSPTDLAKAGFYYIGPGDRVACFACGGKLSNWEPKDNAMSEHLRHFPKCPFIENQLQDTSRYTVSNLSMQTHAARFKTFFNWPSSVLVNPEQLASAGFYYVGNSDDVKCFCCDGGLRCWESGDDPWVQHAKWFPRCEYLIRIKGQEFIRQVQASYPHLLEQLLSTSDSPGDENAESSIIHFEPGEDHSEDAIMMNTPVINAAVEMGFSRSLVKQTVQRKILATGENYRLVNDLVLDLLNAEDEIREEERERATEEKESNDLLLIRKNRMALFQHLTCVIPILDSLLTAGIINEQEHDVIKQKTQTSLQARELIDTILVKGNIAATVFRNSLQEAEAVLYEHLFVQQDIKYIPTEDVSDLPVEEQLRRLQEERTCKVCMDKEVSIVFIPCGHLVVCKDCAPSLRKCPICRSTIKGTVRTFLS
T2 sequence (Q96SW2 whole entry, looked up): as the sequence (Q96SW2 whole entry, looked up) above
T3 sequence (P98170 whole entry, looked up): as the sequence (P98170 whole entry, looked up) above
T3 sequence (Q13489 whole entry, looked up): as the sequence (Q13489 whole entry, looked up) above
T3 sequence (Q13490 whole entry, looked up): as the sequence (Q13490 whole entry) above
T3 sequence (Q96SW2 whole entry, looked up): as the sequence (Q96SW2 whole entry, looked up) above
Protein cereblon (Homo sapiens), sequence (Q96SW2 whole entry): as the sequence (Q96SW2 whole entry, looked up) above

For `CN[C@@H](C)C(=O)N[C@H](C(=O)N1Cc2cc(OCCCCCCCCNC(=O)C3CN(c4ccc5c(c4)C(=O)N(C4CCC(=O)NC4=O)C5=O)C3)ccc2C[C@H]1C(=O)N[C@@H]1CCCc2ccccc21)C(C)(C)C` (stereo not given in full), the Activity in assay [1] was 90%; in assay [3], 99%; in assay [6] it was more than 90%; in assay [7], 97%; in assay [13] it was 87%. For the same compound, the result in [2], in assay [5] and in [8] was inactive. Further, the result (with MCF7 [4]; in [9]; in assay [10]; in the assay with MCF7 [11]; in assay [12]; in [14]) was Active. Moreover, the inhibition result in the assay on MDA-MB-231 was “Active”.
